Surviving fraction data for nine test systems are collected here from the supplement of paper PMC6045584.

Compound in one test: NS(=O)(=O)OC[C@@H]1C[C@@H](n2ccc3c(N[C@H]4CCc5ccccc54)ncnc32)C[C@@H]1O [MLN-4924]
Put plainly: surviving fraction relative to DMSO-only wells; higher = less growth inhibition. Particulars: exposure time: 5 days. In short, it runs like this: (§1)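 Lines were retained only if, across three screens, replicate Pearson r was >0.7 and median Z' was >0.3. Viability was measured as CellTiter-Glo luminescence and reported as surviving fraction relative to the median of DMSO-only wells. Readings followed 10 minutes at room temperature, after log-phase tumour cells seeded at 250–500 per well in 384-well plates had been exposed, from 24 hours after seeding, continuously for five days to inhibitors at 0.5, 1, 5, 10, 50, 100, 500 and 1000 nM.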

Compound in a further test: Oc1nc(-c2ccc(C(F)(F)F)cc2)nc2c1CSCC2 [XAV-939]
Described as above. Conditions: exposure time: 5 days. An outline of the steps: as §1

± gives the standard deviation of the averaged measurements.

On to SCC003 HEADNECK, for which the surviving fraction with MLN-4924 (0.5 nM) turned out to be 1.14 ± 0.039; with MLN-4924 (1 nM) it was 1.1 ± 0.016; in the test with MLN-4924 (5 nM), 1.11 ± 0.028; with MLN-4924 (10 nM), 1.11 ± 0.048; with MLN-4924 (50 nM), 1.11 ± 0.14; with MLN-4924 (100 nM), 0.988 ± 0.041. For the same test system, the surviving fraction with MLN-4924 (500 nM) was 0.526 ± 0.037; in the test with MLN-4924 (1000 nM) it was 0.375 ± 0.037; in the test with XAV-939 (0.5 nM), 1.04 ± 0.11; with XAV-939 (1 nM), 1.07 ± 0.096; in the test with XAV-939 (5 nM), 1.1 ± 0.052; in the test with XAV-939 (10 nM), 1.08 ± 0.11. Besides, the surviving fraction amounted to 1.02 ± 0.025 with XAV-939 (50 nM), 1.07 ± 0.076 with XAV-939 (100 nM), 1.01 ± 0.12 with XAV-939 (500 nM) and 1.05 ± 0.13 in the test with XAV-939 (1000 nM).

Consider VCAP PROSTATE, for which the surviving fraction with MLN-4924 (0.5 nM) is 0.977 ± 0.06; with MLN-4924 (1 nM) it was 1.08 ± 0.074; in the test with MLN-4924 (5 nM), 1.08 ± 0.15; with MLN-4924 (10 nM), 0.926 ± 0.035; with MLN-4924 (50 nM), 0.526 ± 0.029; with MLN-4924 (100 nM) it was 0.401 ± 0.088. Moreover, the surviving fraction with MLN-4924 (500 nM) stood at 0.198 ± 0.046; in the test with MLN-4924 (1000 nM), 0.169 ± 0.079; with XAV-939 (0.5 nM), 0.963 ± 0.12; with XAV-939 (1 nM), 0.958 ± 0.077; in the test with XAV-939 (5 nM), 1.08 ± 0.092; in the test with XAV-939 (10 nM), 0.973 ± 0.089. For the same test system, the surviving fraction with XAV-939 (50 nM) is 0.957 ± 0.083; with XAV-939 (100 nM) it was 0.903 ± 0.088; with XAV-939 (500 nM) it was 0.848 ± 0.13; with XAV-939 (1000 nM), 0.84 ± 0.024.

Consider HELA CERVIX, for which the surviving fraction turned out to be 1.12 ± 0.038 with MLN-4924 (0.5 nM); 1.07 ± 0.06 in the test with MLN-4924 (1 nM); 1.1 ± 0.052 in the test with MLN-4924 (5 nM); 1 ± 0.022 with MLN-4924 (10 nM); 1.16 ± 0.086 with MLN-4924 (50 nM); 1.17 ± 0.1 in the test with MLN-4924 (100 nM). Moreover, the surviving fraction in the test with MLN-4924 (500 nM) was determined as 0.718 ± 0.055; in the test with MLN-4924 (1000 nM), 0.611 ± 0.027; with XAV-939 (0.5 nM), 1.02 ± 0.066; with XAV-939 (1 nM) it was 1.07 ± 0.033; with XAV-939 (5 nM) it was 1.06 ± 0.025; with XAV-939 (10 nM), 1.08 ± 0.036. The surviving fraction came out at 1.09 ± 0.059 in the test with XAV-939 (50 nM), 1.16 ± 0.028 in the test with XAV-939 (100 nM), 1.09 ± 0.053 with XAV-939 (500 nM) and 1.1 ± 0.049 with XAV-939 (1000 nM).

As for C33A CERVIX, the surviving fraction with MLN-4924 (0.5 nM) was 0.905 ± 0.042; with MLN-4924 (1 nM) it was 0.916 ± 0.093; in the test with MLN-4924 (5 nM) it was 0.929 ± 0.13; in the test with MLN-4924 (10 nM), 0.952 ± 0.11; in the test with MLN-4924 (50 nM), 0.542 ± 0.032; with MLN-4924 (100 nM), 0.358 ± 0.027. For the same test system, the surviving fraction stood at 0.132 ± 0.026 in the test with MLN-4924 (500 nM); 0.0803 ± 0.028 with MLN-4924 (1000 nM); 0.909 ± 0.039 in the test with XAV-939 (0.5 nM); 0.973 ± 0.1 with XAV-939 (1 nM); 0.981 ± 0.032 with XAV-939 (5 nM); 1.03 ± 0.068 with XAV-939 (10 nM). Moreover, the surviving fraction with XAV-939 (50 nM) worked out at 0.913 ± 0.068; with XAV-939 (100 nM), 0.901 ± 0.048; with XAV-939 (500 nM), 0.835 ± 0.062; with XAV-939 (1000 nM) it was 0.755 ± 0.04.

Turning to HU09 BONE, the surviving fraction in the test with MLN-4924 (0.5 nM) was found to be 0.948 ± 0.097; in the test with MLN-4924 (1 nM) it was 0.931 ± 0.076; with MLN-4924 (5 nM), 1.04 ± 0.03; with MLN-4924 (10 nM) it was 1.15 ± 0.048; with MLN-4924 (50 nM), 1.01 ± 0.096; with MLN-4924 (100 nM) it was 0.707 ± 0.052. The surviving fraction turned out to be 0.296 ± 0.0049 with MLN-4924 (500 nM); 0.26 ± 0.018 with MLN-4924 (1000 nM); 1.11 ± 0.087 with XAV-939 (0.5 nM); 1.13 ± 0.061 with XAV-939 (1 nM); 1.06 ± 0.17 in the test with XAV-939 (5 nM); 1.09 ± 0.051 with XAV-939 (10 nM). For the same test system, the surviving fraction is 1.01 ± 0.11 with XAV-939 (50 nM), 1.21 ± 0.031 with XAV-939 (100 nM), 0.817 ± 0.049 with XAV-939 (500 nM) and 0.788 ± 0.043 with XAV-939 (1000 nM).

Take SCC47 HEADNECK: the surviving fraction was 1.12 ± 0.028 with MLN-4924 (0.5 nM); 1.1 ± 0.11 with MLN-4924 (1 nM); 1.06 ± 0.016 with MLN-4924 (5 nM); 1.07 ± 0.022 in the test with MLN-4924 (10 nM); 0.717 ± 0.053 with MLN-4924 (50 nM); 0.51 ± 0.05 with MLN-4924 (100 nM). Besides, the surviving fraction with MLN-4924 (500 nM) was 0.307 ± 0.025; with MLN-4924 (1000 nM) it was 0.263 ± 0.024; in the test with XAV-939 (0.5 nM), 0.987 ± 0.14; in the test with XAV-939 (1 nM), 1.14 ± 0.058; with XAV-939 (5 nM), 1.08 ± 0.036; with XAV-939 (10 nM) it was 1.16 ± 0.027. The surviving fraction with XAV-939 (50 nM) was 1.07 ± 0.047; in the test with XAV-939 (100 nM) it was 1.11 ± 0.082; with XAV-939 (500 nM) it was 0.962 ± 0.05; in the test with XAV-939 (1000 nM) it was 0.966 ± 0.093.

With SUM149.B1*.S BREAST, the surviving fraction was determined as 1.13 ± 0.076 in the test with MLN-4924 (0.5 nM); 1.09 ± 0.063 with MLN-4924 (1 nM); 1.09 ± 0.021 with MLN-4924 (5 nM); 1.08 ± 0.031 in the test with MLN-4924 (10 nM); 1.002 ± 0.0051 with MLN-4924 (50 nM); 0.675 ± 0.057 in the test with MLN-4924 (100 nM). The surviving fraction with MLN-4924 (500 nM) turned out to be 0.107 ± 0.0071; with MLN-4924 (1000 nM), 0.0892 ± 0.0075; with XAV-939 (0.5 nM), 0.968 ± 0.033; in the test with XAV-939 (1 nM), 1.07 ± 0.059; with XAV-939 (5 nM), 1.04 ± 0.047; with XAV-939 (10 nM), 1.06 ± 0.082. The surviving fraction in the test with XAV-939 (50 nM) stood at 0.996 ± 0.045; in the test with XAV-939 (100 nM), 1.06 ± 0.033; with XAV-939 (500 nM), 1.01 ± 0.03; with XAV-939 (1000 nM), 1 ± 0.026.

For MG63 BONE, the surviving fraction is 1.03 ± 0.057 with MLN-4924 (0.5 nM); 1.02 ± 0.046 with MLN-4924 (1 nM); 1.07 ± 0.042 with MLN-4924 (5 nM); 1.13 ± 0.054 with MLN-4924 (10 nM); 0.4 ± 0.058 in the test with MLN-4924 (50 nM); 0.031 ± 0.0046 in the test with MLN-4924 (100 nM). In addition, the surviving fraction in the test with MLN-4924 (500 nM) came to 0.0287 ± 0.005; in the test with MLN-4924 (1000 nM), 0.0287 ± 0.0023; with XAV-939 (0.5 nM) it was 0.98 ± 0.028; with XAV-939 (1 nM), 1.03 ± 0.034; in the test with XAV-939 (5 nM), 1.025 ± 0.0083; with XAV-939 (10 nM), 1.09 ± 0.018. The surviving fraction with XAV-939 (50 nM) came to 0.947 ± 0.034; with XAV-939 (100 nM) it was 0.923 ± 0.03; with XAV-939 (500 nM), 0.7 ± 0.0078; in the test with XAV-939 (1000 nM), 0.723 ± 0.021.

For SAOS2 BONE, the surviving fraction with MLN-4924 (0.5 nM) was 1.14 ± 0.096; in the test with MLN-4924 (1 nM), 1.1 ± 0.082; with MLN-4924 (5 nM), 1.13 ± 0.057; with MLN-4924 (10 nM), 1.1 ± 0.069; in the test with MLN-4924 (50 nM) it was 0.313 ± 0.03; in the test with MLN-4924 (100 nM) it was 0.095 ± 0.0095. Moreover, the surviving fraction stood at 0.038 ± 0.0017 with MLN-4924 (500 nM); 0.0377 ± 0.0015 with MLN-4924 (1000 nM); 1.16 ± 0.027 in the test with XAV-939 (0.5 nM); 1.15 ± 0.041 with XAV-939 (1 nM); 1.21 ± 0.022 with XAV-939 (5 nM); 1.28 ± 0.05 with XAV-939 (10 nM). For the same test system, the surviving fraction with XAV-939 (50 nM) was 1.26 ± 0.034; with XAV-939 (100 nM), 1.25 ± 0.051; in the test with XAV-939 (500 nM) it was 1.14 ± 0.046; with XAV-939 (1000 nM), 1.07 ± 0.072.
